From patent US9730915B2 (OBSCHESTVO S OGRANICHENNOI OTVETSTVENNOSTIYU …, priority 2013, dated 2017)
Several values for one entry are separate records, joined by “and”; a condition that tells them apart may be missing. Equal entries are not always repeated.

Key:
[1] = tested on: IFNAR1 mRNA; assay: mRNA synthesis of interferon receptor subunit IFNAR1, Real Time PCR in A-549 cells; assay type: cell-based; details: 100 ng/mL, 16 hours after the treatment (FIG. 1)
Protocol: (§1) A continuous cell line A-549 was treated with glutaryl histamine at a concentration of 100 ng/mL. […] The RNAs were isolated by using RNEASY® Kit (Qiagen). The RNA preparation was treated with DNAase (RNase-free DNaseI (Ambion). Reverse transcription was performed by using THERMOSCRIPT™ RT-PCR System (Invitrogen). Quantitative PCR was carried out with the primers: […]

[2] = tested on: IFNAR2 mRNA; assay: mRNA synthesis of interferon receptor subunit IFNAR2, Real Time PCR in A-549 cells; assay type: cell-based; details: 100 ng/mL, 16 hours after the treatment (FIG. 1)
Protocol: as §1

[3] = tested on: IFNAR1; assay: Density of interferon receptor subunit IFNAR1 on the surface of primary human macrophages (antibody staining, optical density); assay type: cell-based; details: primary human macrophages, 0.1, 1.0, 10 or 100 ng/mL, 24 hours (FIG. 2)
Protocol: (§2) A 10-day primary culture of human macrophages in 96-well plates was incubated for 24 hours in the presence of glutaryl histamine at concentrations: 0.1, 1.0, 10 or 100 ng/mL or without it. […] The preparation was visualized by staining with horseradish peroxidase-labeled secondary antibodies and adding a substrate. Optical density was measured using an ELISA spectrophotometer.

[4] = tested on: IFNAR2; assay: Density of interferon receptor subunit IFNAR2 on the surface of primary human macrophages (antibody staining, optical density); assay type: cell-based; details: primary human macrophages, 0.1, 1.0, 10 or 100 ng/mL, 24 hours (FIG. 2)
Protocol: as §2

[5] = tested on: protein MxA; assay: Cell sensitivity to interferon: MxA protein immunoblot in A-549 cells; assay type: cell-based; details: for synthesis of MxA protein: glutaryl histamine 100 ng/mL plus 1 IU interferon-alpha
Text: Cell lysates were undergone to the procedure of immunoblot analysis (western blotting) by using monoclonal antibodies against to protein MxA (sc-50509, Santa Cruz Biotechnology) to stain membranes by a chemiluminescence method using a substrate (chemiluminescent reagent SUPER SIGNAL® West Femto Chemiluminescent Substrate (Thermo Fisher Scientific)).

[6] = tested on: herpes simplex virus HSV-1/CL; assay: Murine model of herpes meningoencephalitis, HSV-1/CL; assay type: in vivo; details: mice
Protocol: (§3) Mice were intracerebrally infected with herpes simplex virus HSV-1/CL and HSV-2/VN in a dose of 30 μl comprising 10 LD50.
(§4) A therapeutic effect of glutaryl histamine was studied by once-daily oral administration of 200 μl of the drug to the infected mice at a dose of 30 mg/kg 24, 48, 72, 96, and 120 hours after infection with the virus. Mice of the control group were administered placebo under the same conditions ([…] of a physiological solution). The animals were monitored for 14 days after infection, and fatal cases among mice from herpes meningocephalitis were registered in the treated and control groups. Activity of the drug was evaluated by comparing mortality rates of animals treated with glutaryl histamine relative to animals of the control group. A reduction in the mortality rate of the treated animals relative to the control was expressed in percentage.

[7] = tested on: herpes simplex virus HSV-2/VN; assay: Murine model of herpes meningoencephalitis, HSV-2/VN; assay type: in vivo; details: mice
Protocol: as §3, §4

[8] = Toxic reactions and side effects on administration

## O=C(O)CCCC(=O)NCCc1c[nH]cn1 [glutaryl histamine]
[1]
  increase in the mRNA synthesis of subunit IFNAR1: at least in a two-folded increase
[2]
  increase in the amount of the mRNA of subunit IFNAR2: three-fold increase
[3]
  density of IFNAR1 on the cell surface (signal in antibody staining): noticeably increased level of the signal
[4]
  density of IFNAR2 on the cell surface (signal in antibody staining): noticeably increased level of the signal
[5]; 8 hours (line 5, FIG. 3)
  synthesis of MxA protein: increased synthesis
[5]; 24 hours (line 6, FIG. 3)
  synthesis of MxA protein: increased synthesis
[5]; glutaryl histamine 100 ng/mL, not treated with interferon (lines 1, 2, 3, FIG. 3)
  accumulation of MxA protein: did not cause the accumulation
[6]; HSV-1 strain CL intracerebral 10 LD50, oral once daily 24-120 h after infection, 14 days monitoring, control 95.0
  Mortality rate, %: 65%
[6]; HSV-1 strain CL, 14 days monitoring, control 4.8 ± 3.1
  Life expectancy, days M ± σ: 8.1 days and 8.1 ± 4.9 days
[6]; HSV-1 strain CL, reduction in mortality relative to control
  Protection index, %: 31.6%
[7]; HSV-2, 14 days monitoring, control 6.1 ± 4.3
  Life expectancy, days M ± σ: 10.2 days and 10.2 ± 4.8 days
[7]; HSV-2, reduction in mortality relative to control
  Protection index, %: 47.1%
[7]; HSV-2 intracerebral 10 LD50, oral once daily 24-120 h after infection, 14 days monitoring, control 85.0
  Mortality rate, %: 45%
[8]; accompanying the therapeutic effect
  toxic reactions and other side effects: not accompanied by toxic reactions and other side effects
[8]; long-term administration in therapeutic doses or doses greater by an order of magnitude
  adverse side effects: has not demonstrated adverse side effects
